# According to ChEMBL document CHEMBL5137057, “Small Carbohydrate Derivatives as Potent Antibiofilm Agents” (J Med Chem, 2022):
# Key:
# [1] = tested on: Mycolicibacterium smegmatis; test: Antibiofilm activity against Mycobacterium smegmatis MC2 155 assessed as […] measured after 48 hrs by crystal violet staining based analysis; format: functional
# [2] = tested on: Mycolicibacterium smegmatis; test: Antimicrobial activity against Mycobacterium smegmatis MC2 155 assessed as planktonic growth inhibition measured after 48 hrs by microplate reader analysis; format: functional
# Staphylococcus aureus [3] = test: Potentiation of vancomycin-induced antibacterial activity against methicillin resistant Staphylococcus aureus Mu50 in presence of vancomycin; format: functional, organism-based
# Staphylococcus aureus [4] = test: Potentiation of vancomycin-induced antibacterial activity against methicillin resistant Staphylococcus aureus Mu50 pretreated with compound followed by vancomycin addition; format: functional, organism-based
# Staphylococcus aureus [5] = test: Antibacterial activity against Staphylococcus aureus ATCC 25923 assessed as inhibition of biofilm formation incubated for 24 hrs by crystal violet staining based analysis relative to control; format: functional; set-up: scale not given: the % may be the effect or the level left
# Serratia marcescens = test: Antibacterial activity against Serratia marcescens ATCC 27117 assessed as inhibition of biofilm formation at 50 ug/ml incubated for 24 hrs by crystal violet staining based analysis relative to control; format: functional; set-up: scale not given: the % may be the effect or the level left; conditions: dose 50 µg/ml
# [6] = molecular target: T1, PA-I galactophilic lectin (Pseudomonas aeruginosa (strain ATCC 15692 / PAO1 / 1C / PRS 101 / LMG12228), UniProt Q05097); test: Binding affinity to Pseudomonas aeruginosa LecA assessed as dissociation constant by isothermal titration calorimetry
# T1 sequence (Q05097 whole entry): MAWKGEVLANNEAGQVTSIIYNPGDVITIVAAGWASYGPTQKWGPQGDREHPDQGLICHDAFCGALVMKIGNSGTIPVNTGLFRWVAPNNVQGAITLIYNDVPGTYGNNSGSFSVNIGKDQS
# [7] = molecular target: T1, PA-I galactophilic lectin; test: Inhibition of Pseudomonas aeruginosa LecA incubated for 4 to 6 hrs by fluorescence polarization based competitive binding analysis
# [8] = molecular target: Type 1 fimbrin D-mannose specific adhesin (Escherichia coli K-12) (UniProt P08191); test: Inhibition of Escherichia coli UTI89 FimH by hemagglutination assay
# Streptococcus agalactiae [9] = test: Antibiofilm activity against Streptococcus agalactiae GRS90; format: functional; conditions: dose 128 µg/ml; time 22 hrs
# Streptococcus agalactiae [10] = test: Antibiofilm activity against Streptococcus agalactiae GB2; format: functional
# Staphylococcus aureus [11] = test: Antibiofilm activity against methicillin-sensitive Staphylococcus aureus UAMS-1 measured after 22 hrs by crystal violet staining based assay; format: functional; conditions: for MIC50: Staphylococcus aureus, UAMS-1
# [12] = molecular target: Type 1 fimbrin D-mannose specific adhesin (Escherichia coli K-12) (UniProt P08191); test: Relative inhibitory potency, ratio of methyl alpha-D-mannose Kd to compound Kd for binding affinity to C-terminal His-tagged truncated Escherichia coli FimH by SPR analysis; conditions: K12
# [13] = molecular target: Type 1 fimbrin D-mannose specific adhesin (Escherichia coli K-12) (UniProt P08191); test: Relative inhibitory potency, ratio of methyl alpha-D-mannose Kd to compound Kd for binding affinity to Escherichia coli FimH by ELISA assay; conditions: K12
# Pseudomonas aeruginosa = test: Antibacterial activity against Pseudomonas aeruginosa PAO1 NCTC 10332 assessed as inhibition of biofilm formation incubated for 24 hrs by crystal violet staining based analysis; format: functional, organism-based; conditions: PAO1 NCTC 10332, 24 h
# Type 1 fimbrin D-mannose specific adhesin (Escherichia coli K-12), sequence (P08191 whole entry, the tested form may be a part): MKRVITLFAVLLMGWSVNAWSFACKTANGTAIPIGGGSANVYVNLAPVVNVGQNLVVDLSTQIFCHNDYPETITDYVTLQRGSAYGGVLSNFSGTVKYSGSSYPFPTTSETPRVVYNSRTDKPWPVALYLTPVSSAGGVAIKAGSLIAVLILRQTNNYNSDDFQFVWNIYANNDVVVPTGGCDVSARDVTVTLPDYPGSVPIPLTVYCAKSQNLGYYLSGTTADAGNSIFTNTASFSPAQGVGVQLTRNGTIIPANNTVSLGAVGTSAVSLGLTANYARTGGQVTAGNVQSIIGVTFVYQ
smiles,measurement,setting,value
OC[C@H]1O[C@H](O[C@H]2O[C@H](CO)[C@@H](O)[C@H](O)[C@H]2F)[C@H](O)[C@@H](O)[C@@H]1O,MBIC,[1],100 µM
same,MIC,[2],> 500 µM
O=C(NC[C@]1(O)CO[C@H](CN2C(=O)c3ccccc3C2=O)[C@H]1O)c1ccccc1,EC50,Staphylococcus aureus [3],8.29 µM
same,EC50,Staphylococcus aureus [4],5.01 µM
CCCCCCC[C@H](CC(=O)NCc1ccccc1)OC(=O)C[C@@H](CCCCCCC)O[C@@H]1O[C@@H](C)[C@H](O)[C@@H](O)[C@H]1O[C@@H]1O[C@@H](C)[C@H](O)[C@@H](O)[C@H]1O,Activity,Staphylococcus aureus [5],>90%
same,Activity,Serratia marcescens,>80%
OC[C@H]1O[C@@H](OCc2cn([C@H]3[C@H](O)[C@@H](O)[C@H](n4cc(-c5ccc(-c6cn([C@@H]7O[C@H](CO)[C@@H](n8cc(CO[C@@H]9O[C@H](CO)[C@H](O)[C@H](O)[C@H]9O)nn8)[C@H](O)[C@H]7O)nn6)cc5)nn4)O[C@@H]3CO)nn2)[C@H](O)[C@@H](O)[C@H]1O,Kd,[6],0.012 µM
O=C(NC[C@@H]1O[C@H](CNC(=O)c2ccccc2Cl)[C@@H](O)[C@H]1O)c1ccccc1,EC50,Staphylococcus aureus [3],3.71 µM
OC[C@H]1O[C@H](O[C@H]2O[C@H](CO)[C@@H](O)[C@H](O)[C@H]2O)[C@@H](O)[C@@H](O)[C@@H]1O,MBIC,[1],>500 µM
same,MIC,[2],> 500 µM
O=C(N/N=C/c1ccc(Oc2ccc(/C=N/NC(=O)c3ccc(O[C@@H]4O[C@H](CO)[C@H](O)[C@H](O)[C@H]4O)cc3)cc2)cc1)c1ccc(O[C@@H]2O[C@H](CO)[C@H](O)[C@H](O)[C@H]2O)cc1,Kd,[6],10.8 µM
same,IC50,[7],5 µM
OC[C@H]1O[C@@H](Sc2ccc3ccccc3c2)[C@H](O)[C@@H](O)[C@H]1O,EC50,Staphylococcus aureus [3],7.97 µM
O=C(NC[C@]1(O)CO[C@H](CNC(=O)c2ccccc2Cl)[C@H]1O)c1ccccc1,EC50,Staphylococcus aureus [3],7.98 µM
CNC(=O)c1cccc(-c2ccc(O[C@H]3O[C@H](CO)[C@@H](O)[C@H](O)[C@@H]3O)c(C(F)(F)F)c2)c1,EC>90,[8],32 nM
CNC(=O)c1cc(C(=O)NC)cc(-c2ccc(O[C@H]3O[C@H](CO)[C@@H](O)[C@H](O)[C@@H]3O)c(C(F)(F)F)c2)c1,EC>90,[8],8 nM
CCCCCCC[C@H](CC(=O)N1CCCCC1)OC(=O)C[C@@H](CCCCCCC)O[C@@H]1O[C@@H](C)[C@H](O)[C@@H](O)[C@H]1O[C@@H]1O[C@@H](C)[C@H](O)[C@@H](O)[C@H]1O,Activity,Staphylococcus aureus [5],>90%
same,Activity,Serratia marcescens,>80%
O=c1oc2c(O[C@@H]3OC[C@@H](O)[C@H](O)[C@H]3O)c(O)cc3c(=O)oc4c(O)c(O)cc1c4c23,MBIC50,Streptococcus agalactiae [9],512 µg/mL
same,MBIC50,Streptococcus agalactiae [10],512 µg/mL
same,MBIC50,Staphylococcus aureus [11],64 µg/mL
same,MBIC90,Staphylococcus aureus [11],>512 µg/mL
same,MIC50,Staphylococcus aureus [11],32 µg/mL
O=c1oc2c(O[C@@H]3OC[C@H](O)[C@H](O)[C@H]3O)c(O)cc3c(=O)oc4c(O)c(O)cc1c4c23,MBIC50,Streptococcus agalactiae [9],512 µg/mL
same,MBIC50,Streptococcus agalactiae [10],512 µg/mL
O=C(NC[C@]1(O)CO[C@H](CN2C(=O)c3ccccc3C2=O)[C@H]1O)c1ccccc1Cl,EC50,Staphylococcus aureus [3],1.27 µM
same,EC50,Staphylococcus aureus [4],0.26 µM
CO[C@H]1O[C@H](CO)[C@@H](O)[C@H](O)[C@@H]1O,Ratio,[12],1
Cc1cc(-c2ccc3ccn(C(=O)Nc4cccnc4)c(=O)c3c2)ccc1O[C@H]1O[C@H](CO)[C@@H](O)[C@H](O)[C@@H]1O,EC>90,[8],62 nM
CCOc1c(Nc2ccc(O[C@H]3O[C@H](CO)[C@@H](O)[C@H](O)[C@@H]3O)c(Cl)c2)c(=O)c1=O,Ratio,[13],6900
CNC(=O)c1cccc(-c2ccc(O[C@H]3O[C@H](CO)[C@@H](O)[C@H](O)[C@@H]3O)c(C)c2)c1,EC>90,[8],62 nM
CNC(=O)c1cc(C(=O)NC)cc(-c2ccc(O[C@H]3O[C@H](CO)[C@@H](O)[C@H](O)[C@@H]3O)cc2)c1,EC>90,[8],375 nM
CCCCCCC[C@H](CC(=O)O)OC(=O)C[C@@H](CCCCCCC)O[C@@H]1O[C@@H](C)[C@H](O)[C@@H](O)[C@H]1O[C@@H]1O[C@@H](C)[C@H](O)[C@@H](O)[C@H]1O,IC50,Pseudomonas aeruginosa,75 µg/mL
CCOc1c(Nc2ccc(O[C@H]3O[C@H](CO)[C@@H](O)[C@H](O)[C@@H]3O)cc2)c(=O)c1=O,Ratio,[13],1800
OC[C@H]1O[C@H](O[C@@H]2C[C@@H](O)[C@H](O)[C@@H](CO)O2)[C@H](O)[C@@H](O)[C@@H]1O,MBIC,[1],50 µM
same,MIC,[2],> 500 µM
[N-]=[N+]=NC[C@H]1O[C@H](O[C@H]2O[C@H](CO)[C@@H](O)[C@H](O)[C@H]2O)[C@H](O)[C@@H](O)[C@@H]1O,MBIC,[1],50 µM
same,MIC,[2],> 500 µM
[N-]=[N+]=N[C@H]1[C@@H](O[C@H]2O[C@H](CO)[C@@H](O)[C@H](O)[C@H]2O)O[C@H](CO)[C@@H](O)[C@@H]1O,MBIC,[1],500 µM
same,MIC,[2],> 500 µM
O[C@H]1[C@@H](O)[C@@H](C2CO2)O[C@@H](Oc2ccccc2)[C@@H]1O (some centres not stated),IC50,[7],64 µM
OC[C@H]1O[C@H](O[C@H]2S[C@H](CO)[C@@H](O)[C@H](O)[C@H]2O)[C@H](O)[C@@H](O)[C@@H]1O,MBIC,[1],100 µM
same,MIC,[2],> 500 µM
OC[C@H]1O[C@@H](Oc2ccccc2)[C@H](O)[C@@H](O)[C@H]1O,IC50,[7],13.2 µM
CNC(=O)c1cccc(-c2ccc(O[C@H]3O[C@H](CO)[C@@H](O)[C@H](O)[C@@H]3O)cc2)c1,EC>90,[8],500 nM
C[C@H]1O[C@H](O[C@H]2O[C@H](CO)[C@@H](O)[C@H](O)[C@H]2O)[C@H](O)[C@@H](O)[C@@H]1O,MBIC,[1],100 µM
same,MIC,[2],> 500 µM
Cc1cc(=O)oc2ccc(O[C@H]3O[C@H](CO)[C@@H](O)[C@H](O)[C@@H]3O)cc12,Ratio,[12],380
O=C(O)/C=C(\C[C@@H]1O[C@H](CO)[C@H](O)[C@H](O)[C@H]1O)c1ccccc1,Kd,[6],37 µM
O=c1[nH]ccc2ccc(-c3ccc(O[C@H]4O[C@H](CO)[C@@H](O)[C@H](O)[C@@H]4O)cc3)cc12,EC>90,[8],100 nM
COc1ccc(/C=N/NC(=O)c2ccc(O[C@@H]3O[C@H](CO)[C@H](O)[C@H](O)[C@H]3O)cc2)cc1,Kd,[6],5.6 µM
same,IC50,[7],55.5 µM
O=c1oc2c(O)c(O)cc3c(=O)oc4c(O)c(O)cc1c4c23 [ELLAGIC ACID],MBIC50,Staphylococcus aureus [11],128 µg/mL
same,MBIC90,Staphylococcus aureus [11],>512 µg/mL
same,MIC50,Staphylococcus aureus [11],> 512 µg/mL
OC[C@H]1O[C@H](O[C@H]2O[C@H](CF)[C@@H](O)[C@H](O)[C@H]2O)[C@H](O)[C@@H](O)[C@@H]1O,MBIC,[1],100 µM
same,MIC,[2],> 500 µM
"O[C@H]1[C@@H](O)[C@H](C2CO2)O[C@@H](Oc2ccccc2)[C@@H]1O (single isomer, unassigned)",IC50,[7],> 3000 µM
C[C@@H]1O[C@@H](Oc2c(O)cc3c(=O)oc4c(O)c(O)cc5c(=O)oc2c3c45)[C@H](O)[C@H](O)[C@H]1O,MBIC50,Staphylococcus aureus [11],64 µg/mL
same,MBIC90,Staphylococcus aureus [11],128 µg/mL
same,MIC50,Staphylococcus aureus [11],> 512 µg/mL
CNC(=O)c1cc(C(=O)NC)cc(-c2ccc(O[C@H]3O[C@H](CO)[C@@H](O)[C@H](O)[C@@H]3O)c(C)c2)c1,EC>90,[8],16 nM
